In publication PMC5218480 (PLoS ONE, 2017):

Tested on: MV-4-11 cells
Assay: Gene expression microarray analysis (Affymetrix PrimeView) and GSEA
Type: cell-based, human
Set-up: RFU PODN (11730768_x_at) / Fold change /veh PODN (11730768_x_at) / RFU LINC00158 (11744669_a_at) / Fold change /veh LINC00158 (11744669_a_at) / RFU DUSP10 (11751237_a_at) / Fold change /veh DUSP10 (11751237_a_at) / RFU ID3 (11757404_x_at) / Fold change /veh ID3 (11757404_x_at) / RFU PLEKHG5 (11737974_s_at) / Fold change /veh PLEKHG5 (11737974_s_at) / RFU LRRC4B (11730491_at) / Fold change /veh LRRC4B (11730491_at) / RFU GIMAP4 (11747438_a_at) / Fold change /veh GIMAP4 (11747438_a_at) / RFU KRT8 (11758183_x_at) / Fold change /veh KRT8 (11758183_x_at) / RFU CNN1 (11734310_a_at) / Fold change /veh CNN1 (11734310_a_at) / RFU VPS37D (11726825_at) / Fold change /veh VPS37D (11726825_at) / RFU C10orf10 (11716522_x_at) / Fold change /veh C10orf10 (11716522_x_at) / RFU KIR2DL2 /// KIR2DL4 /// KIR2DL5A /// KIR2DL5B /// KIR2DS1 /// KIR2DS2 /// KIR2DS3 /// KIR2DS4 /// KIR3DL3 /// KIR3DL3 /// KIR3DS1 (11738374_at) / Fold change /veh KIR2DL2 /// KIR2DL4 /// KIR2DL5A /// KIR2DL5B /// KIR2DS1 /// KIR2DS2 /// KIR2DS3 /// KIR2DS4 /// KIR3DL3 /// KIR3DL3 /// KIR3DS1 (11738374_at) / RFU C1QL1 (11718748_at) / Fold change /veh C1QL1 (11718748_at) / RFU TMPRSS4 (11747572_a_at) / Fold change /veh TMPRSS4 (11747572_a_at) / RFU HAMP (11756126_x_at) / Fold change /veh HAMP (11756126_x_at) / RFU RNFT2 (11725882_a_at) / Fold change /veh RNFT2 (11725882_a_at) / RFU NR4A2 (11747474_a_at) / Fold change /veh NR4A2 (11747474_a_at) / RFU ABCC12 (11746883_a_at) / Fold change /veh ABCC12 (11746883_a_at) / RFU TMEM136 (11760407_x_at) / Fold change /veh TMEM136 (11760407_x_at) / RFU CLDN22 /// WWC2 (11732394_at) / Fold change /veh CLDN22 /// WWC2 (11732394_at) / RFU HLA-DPB1 (11760878_x_at) / Fold change /veh HLA-DPB1 (11760878_x_at) / RFU SPINT1 (11716480_a_at) / Fold change /veh SPINT1 (11716480_a_at) / RFU GAP43 (11754022_s_at) / Fold change /veh GAP43 (11754022_s_at) / RFU A4GNT (11735810_at) / Fold change /veh A4GNT (11735810_at) / RFU PRB3 (11715151_x_at) / Fold change /veh PRB3 (11715151_x_at) / RFU TUBB4B (11761932_at) / Fold change /veh TUBB4B (11761932_at) / RFU CAPN14 (11732068_a_at) / Fold change /veh CAPN14 (11732068_a_at) / RFU TMCC2 (11721928_a_at) / Fold change /veh TMCC2 (11721928_a_at) / RFU IRGQ (11745062_a_at) / Fold change /veh IRGQ (11745062_a_at) / RFU FAM174B (11720279_a_at) / Fold change /veh FAM174B (11720279_a_at) / RFU TMPRSS4 (11748680_a_at) / Fold change /veh TMPRSS4 (11748680_a_at) / RFU FAM212B (11763350_a_at) / Fold change /veh FAM212B (11763350_a_at) / RFU PLEKHG5 (11743358_a_at) / Fold change /veh PLEKHG5 (11743358_a_at) / RFU ZSCAN30 (11745921_a_at) / Fold change /veh ZSCAN30 (11745921_a_at) / RFU CMKLR1 (11741424_a_at) / Fold change /veh CMKLR1 (11741424_a_at) / RFU LOC101060620 /// MAPK8IP1 (11723275_at) / Fold change /veh LOC101060620 /// MAPK8IP1 (11723275_at) / RFU SPTSSB (11747773_x_at) / Fold change /veh SPTSSB (11747773_x_at) / RFU PRSS12 (11739890_at) / Fold change /veh PRSS12 (11739890_at) / RFU BIN1 (11741810_x_at) / Fold change /veh BIN1 (11741810_x_at) / RFU WNT11 (11732464_a_at) / Fold change /veh WNT11 (11732464_a_at) / RFU C10orf10 (11716521_a_at) / Fold change /veh C10orf10 (11716521_a_at) / RFU C5orf56 (11738089_at) / Fold change /veh C5orf56 (11738089_at) / RFU CYB561 (11721691_x_at) / Fold change /veh CYB561 (11721691_x_at) / RFU ANKRD19P (11752326_a_at) / Fold change /veh ANKRD19P (11752326_a_at) / RFU OR2T12 /// OR2T33 /// OR2T8 (11738714_s_at) / Fold change /veh OR2T12 /// OR2T33 /// OR2T8 (11738714_s_at) / RFU VCAN (11748164_a_at) / Fold change /veh VCAN (11748164_a_at) / RFU JSRP1 (11732532_at) / Fold change /veh JSRP1 (11732532_at) / RFU KRTAP10-11 (11738290_x_at) / Fold change /veh KRTAP10-11 (11738290_x_at) / RFU MYO3A (11730013_a_at) / Fold change /veh MYO3A (11730013_a_at) / RFU EBF3 (11725865_a_at) / Fold change /veh EBF3 (11725865_a_at) / RFU CAMK2N1 (11719241_x_at) / Fold change /veh CAMK2N1 (11719241_x_at) / RFU C5orf56 (11738088_a_at) / Fold change /veh C5orf56 (11738088_a_at) / RFU OLFML3 (11715873_a_at) / Fold change /veh OLFML3 (11715873_a_at) / RFU LOC100653217 /// NTM (11731650_a_at) / Fold change /veh LOC100653217 /// NTM (11731650_a_at) / RFU MAPK11 (11762145_a_at) / Fold change /veh MAPK11 (11762145_a_at) / RFU FIZ1 (11724087_x_at) / Fold change /veh FIZ1 (11724087_x_at) / RFU OASL (11726364_x_at) / Fold change /veh OASL (11726364_x_at) / RFU SOX15 (11748057_x_at) / Fold change /veh SOX15 (11748057_x_at) / RFU CD79A (11719716_a_at) / Fold change /veh CD79A (11719716_a_at) / RFU HIST1H1D (11736915_at) / Fold change /veh HIST1H1D (11736915_at) / RFU CASKIN2 (11723855_a_at) / Fold change /veh CASKIN2 (11723855_a_at) / RFU LOC730098 (11760151_x_at) / Fold change /veh LOC730098 (11760151_x_at) / RFU OR4N2 (11742367_at) / Fold change /veh OR4N2 (11742367_at) / RFU PRRT2 (11749266_a_at) / Fold change /veh PRRT2 (11749266_a_at) / RFU SNX32 (11753110_a_at) / Fold change /veh SNX32 (11753110_a_at) / RFU CDHR5 (11726645_a_at) / Fold change /veh CDHR5 (11726645_a_at) / RFU RCAN1 (11760418_a_at) / Fold change /veh RCAN1 (11760418_a_at) / RFU FAM167A (11723789_a_at) / Fold change /veh FAM167A (11723789_a_at) / RFU FAM26E (11764081_at) / Fold change /veh FAM26E (11764081_at) / RFU ISYNA1 (11749810_s_at) / Fold change /veh ISYNA1 (11749810_s_at) / RFU ACY1 (11761880_at) / Fold change /veh ACY1 (11761880_at) / RFU 11764098_at / Fold change /veh 11764098_at / RFU SAMD14 (11745864_x_at) / Fold change /veh SAMD14 (11745864_x_at) / RFU NPB (11741838_a_at) / Fold change /veh NPB (11741838_a_at) / RFU TMPRSS6 (11731388_a_at) / Fold change /veh TMPRSS6 (11731388_a_at) / RFU KRTAP10-2 (11738614_at) / Fold change /veh KRTAP10-2 (11738614_at) / RFU ARHGAP8 /// PRR5-ARHGAP8 (11727945_x_at) / Fold change /veh ARHGAP8 /// PRR5-ARHGAP8 (11727945_x_at) / RFU KRTAP5-7 /// NADSYN1 (11734609_at) / Fold change /veh KRTAP5-7 /// NADSYN1 (11734609_at) / RFU RASL12 (11751679_a_at) / Fold change /veh RASL12 (11751679_a_at) / RFU CDKN2B (11736163_a_at) / Fold change /veh CDKN2B (11736163_a_at) / RFU PRF1 (11729649_at) / Fold change /veh PRF1 (11729649_at) / RFU, ZNF638 /// ZNF638-IT1 / Fold change vs veh, ZNF638 /// ZNF638-IT1 / RFU, PANK3 / Fold change vs veh, PANK3 / RFU, SH3YL1 / Fold change vs veh, SH3YL1 / RFU, ZEB2 / Fold change vs veh, ZEB2 / RFU, NRIP1 / Fold change vs veh, NRIP1 / RFU, PTTG1IP / Fold change vs veh, PTTG1IP / RFU, CAPN2 / Fold change vs veh, CAPN2 / RFU, MED14 / Fold change vs veh, MED14 / RFU, SNORA58 / Fold change vs veh, SNORA58 / RFU, C1orf63 / Fold change vs veh, C1orf63 / RFU, LRRFIP1 / Fold change vs veh, LRRFIP1 / RFU, NDUFAF7 / Fold change vs veh, NDUFAF7 / RFU, SLC12A2 / Fold change vs veh, SLC12A2 / RFU, IBTK / Fold change vs veh, IBTK / RFU, ESF1 / Fold change vs veh, ESF1 / Fold change vs veh, TMEM50B / RFU, TAOK1 / Fold change vs veh, TAOK1 / RFU, ACBD3 / Fold change vs veh, ACBD3 / RFU, TMA16 / Fold change vs veh, TMA16 / RFU, RWDD3 / Fold change vs veh, RWDD3 / RFU, BCAT1 / Fold change vs veh, BCAT1 / RFU, EDEM3 / Fold change vs veh, EDEM3 / RFU, TMEM33 / Fold change vs veh, TMEM33 / RFU, WDR75 / Fold change vs veh, WDR75 / RFU, AHCTF1 / Fold change vs veh, AHCTF1 / RFU, TFRC / Fold change vs veh, TFRC / RFU, ZDHHC17 / Fold change vs veh, ZDHHC17 / RFU, NOM1 / Fold change vs veh, NOM1 / RFU, ARL8B / Fold change vs veh, ARL8B / RFU, ZBTB11 / Fold change vs veh, ZBTB11 / RFU, TAMM41 / Fold change vs veh, TAMM41 / RFU, KIAA1704 /// LOC100996395 / Fold change vs veh, KIAA1704 /// LOC100996395 / RFU, ING1 / Fold change vs veh, ING1 / RFU, TRMT61B / Fold change vs veh, TRMT61B / RFU, FUBP3 / Fold change vs veh, FUBP3 / RFU, TP53 / Fold change vs veh, TP53 / RFU, TNKS2 / Fold change vs veh, TNKS2 / RFU, ZFP14 / Fold change vs veh, ZFP14 / RFU, ACTR2 / Fold change vs veh, ACTR2 / RFU, PPP3R1 / Fold change vs veh, PPP3R1 / RFU, PIK3R1 / Fold change vs veh, PIK3R1 / RFU, HNRNPA1 / Fold change vs veh, HNRNPA1 / RFU, RNF170 / Fold change vs veh, RNF170 / RFU, ZNF28 / Fold change vs veh, ZNF28 / RFU, RNGTT / Fold change vs veh, RNGTT / RFU, OGT / Fold change vs veh, OGT / RFU, BRD1 / Fold change vs veh, BRD1 / RFU, MARS / Fold change vs veh, MARS / RFU, ZNF655 / Fold change vs veh, ZNF655 / RFU, FAHD1 / Fold change vs veh, FAHD1 / RFU, BDP1 / Fold change vs veh, BDP1 / RFU, LRRCC1 / Fold change vs veh, LRRCC1 / RFU, ARID1A / Fold change vs veh, ARID1A / RFU, ZNF146 / Fold change vs veh, ZNF146 / RFU, ZNF330 / Fold change vs veh, ZNF330 / RFU, GPN3 / Fold change vs veh, GPN3 / RFU, C9orf123 / Fold change vs veh, C9orf123 / RFU, N4BP2L2 / Fold change vs veh, N4BP2L2 / RFU, ARFIP1 / Fold change vs veh, ARFIP1 / RFU, FAM179B / Fold change vs veh, FAM179B / RFU, BCL10 / Fold change vs veh, BCL10 / RFU, UHRF1BP1L / Fold change vs veh, UHRF1BP1L / RFU, BET1 / Fold change vs veh, BET1 / RFU, CNOT2 / Fold change vs veh, CNOT2 / RFU, ZNF268 / Fold change vs veh, ZNF268 / Fold change vs veh, ZNF507 / RFU, DGCR2 / Fold change vs veh, DGCR2 / RFU, WDSUB1 / Fold change vs veh, WDSUB1 / Fold change vs veh, HSP90B1 /// MIR3652 / RFU, ADSS / Fold change vs veh, ADSS / RFU, GK / Fold change vs veh, GK / RFU, ZNF148 / Fold change vs veh, ZNF148 / RFU, TAF9 / Fold change vs veh, TAF9 / RFU, SLC1A5 / Fold change vs veh, SLC1A5 / RFU, SLMO2 / Fold change vs veh, SLMO2 / RFU, ABCC4 / Fold change vs veh, ABCC4 / RFU, LOC101060439 /// RAP1B / Fold change vs veh, LOC101060439 /// RAP1B / RFU, RFX7 / Fold change vs veh, RFX7 / RFU, GTPBP10 / Fold change vs veh, GTPBP10 / RFU, CNEP1R1 / Fold change vs veh, CNEP1R1 / RFU, BIVM-ERCC5 /// ERCC5 / Fold change vs veh, BIVM-ERCC5 /// ERCC5 / RFU, ILF3 / Fold change vs veh, ILF3 / RFU 11762660_at / Fold change /veh 11762660_at / RFU VCAN (11757783_s_at) / Fold change /veh VCAN (11757783_s_at) / RFU DDX43 (11728927_at) / Fold change /veh DDX43 (11728927_at) / RFU KRT8 (11758188_x_at) / Fold change /veh KRT8 (11758188_x_at) / RFU NKD1 (11759106_at) / Fold change /veh NKD1 (11759106_at) / RFU SRD5A1 (11742802_a_at) / Fold change /veh SRD5A1 (11742802_a_at) / RFU TPSAB1 /// TPSB2 (11721975_s_at) / Fold change /veh TPSAB1 /// TPSB2 (11721975_s_at) / RFU GSTM3 (11746129_a_at) / Fold change /veh GSTM3 (11746129_a_at) / RFU IL23R (11737362_x_at) / Fold change /veh IL23R (11737362_x_at) / RFU TMEM51 (11727254_a_at) / Fold change /veh TMEM51 (11727254_a_at) / RFU PIWIL2 (11732686_x_at) / Fold change /veh PIWIL2 (11732686_x_at) / RFU ORM1 (11744905_x_at) / Fold change /veh ORM1 (11744905_x_at) / RFU CCDC152 (11743942_at) / Fold change /veh CCDC152 (11743942_at) / RFU ECM1 (11717891_a_at) / Fold change /veh ECM1 (11717891_a_at) / RFU IL23R (11748794_a_at) / Fold change /veh IL23R (11748794_a_at) / RFU TNFAIP8L3 (11732012_x_at) / Fold change /veh TNFAIP8L3 (11732012_x_at) / RFU MBOAT4 (11741988_at) / Fold change /veh MBOAT4 (11741988_at) / RFU 11764193_at / Fold change /veh 11764193_at / RFU TMEM53 (11763286_at) / Fold change /veh TMEM53 (11763286_at) / RFU MAGEB2 (11727129_at) / Fold change /veh MAGEB2 (11727129_at) / RFU TMEM200A (11744735_a_at) / Fold change /veh TMEM200A (11744735_a_at) / RFU CCDC152 (11751479_a_at) / Fold change /veh CCDC152 (11751479_a_at) / RFU FAM211A (11726209_a_at) / Fold change /veh FAM211A (11726209_a_at) / RFU RGS16 (11746705_a_at) / Fold change /veh RGS16 (11746705_a_at) / RFU VCAN (11755009_s_at) / Fold change /veh VCAN (11755009_s_at) / RFU RHOB (11743442_s_at) / Fold change /veh RHOB (11743442_s_at) / RFU RGS16 (11720943_a_at) / Fold change /veh RGS16 (11720943_a_at) / RFU RGS16 (11720944_at) / Fold change /veh RGS16 (11720944_at) / RFU, VPS4B / Fold change vs veh, VPS4B / RFU, CREB1 / Fold change vs veh, CREB1 / RFU, DNAJC13 / Fold change vs veh, DNAJC13 / RFU, GNAQ / Fold change vs veh, GNAQ / RFU, CDK5R1 / Fold change vs veh, CDK5R1 / RFU, ZRANB3 / Fold change vs veh, ZRANB3 / RFU, CUL4A / Fold change vs veh, CUL4A / RFU, CCNY / Fold change vs veh, CCNY / RFU, UFL1 / Fold change vs veh, UFL1 / RFU, COG3 / Fold change vs veh, COG3 / RFU, DIAPH2 / Fold change vs veh, DIAPH2 / RFU, SKA2 / Fold change vs veh, SKA2 / RFU, AFF3 / Fold change vs veh, AFF3 / RFU, LMF1 / Fold change vs veh, LMF1 / RFU, IPO11 / Fold change vs veh, IPO11 / RFU, DFFB / Fold change vs veh, DFFB / RFU, FOXP1 / Fold change vs veh, FOXP1 / RFU, CARD8 / Fold change vs veh, CARD8 / RFU, STRN3 / Fold change vs veh, STRN3 / RFU, ADK / Fold change vs veh, ADK / RFU, RASSF2 / Fold change vs veh, RASSF2 / RFU, WIPF1 / Fold change vs veh, WIPF1 / RFU, LARP1B / Fold change vs veh, LARP1B / RFU, RASA1 / Fold change vs veh, RASA1 / RFU, RB1 / Fold change vs veh, RB1 / RFU, PPFIA1 / Fold change vs veh, PPFIA1 / RFU, MAT2A / Fold change vs veh, MAT2A / RFU, CCT5 / Fold change vs veh, CCT5 / RFU, WDR92 / Fold change vs veh, WDR92 / RFU, CUX1 / Fold change vs veh, CUX1 / RFU, TTC7A / Fold change vs veh, TTC7A / RFU, TMEM135 / Fold change vs veh, TMEM135 / RFU, DEPTOR / Fold change vs veh, DEPTOR / RFU, CPM / Fold change vs veh, CPM / RFU, DNAJB6 / Fold change vs veh, DNAJB6 / RFU, CACNA2D3 / Fold change vs veh, CACNA2D3 / RFU, DTX4 / Fold change vs veh, DTX4 / RFU, TFCP2 / Fold change vs veh, TFCP2 / RFU, GMCL1 /// GMCL1P1 / Fold change vs veh, GMCL1 /// GMCL1P1 / RFU, AEBP2 / Fold change vs veh, AEBP2 / RFU, SNHG1 /// SNORD22 /// SNORD25 /// SNORD26 /// SNORD27 /// SNORD28 /// SNORD29 /// SNORD31 / Fold change vs veh, SNHG1 /// SNORD22 /// SNORD25 /// SNORD26 /// SNORD27 /// SNORD28 /// SNORD29 /// SNORD31 / Fold change (Aza/veh), C12orf56 (ProbeSet 11735607_a_at) / Fold change (ACY-1035/veh), C12orf56 (ProbeSet 11735607_a_at) / Fold change (Aza/veh), FGFR1OP (ProbeSet 11751329_s_at) / Fold change (ACY-1035/veh), FGFR1OP (ProbeSet 11751329_s_at) / Fold change (Aza/veh), VPS36 (ProbeSet 11739960_a_at) / Fold change (ACY-1035/veh), VPS36 (ProbeSet 11739960_a_at) / RFU SYPL1 (11715823_x_at) / Fold change /veh SYPL1 (11715823_x_at) / RFU IGFBP7 (11715501_s_at) / Fold change /veh IGFBP7 (11715501_s_at) / RFU REEP3 (11722064_at) / Fold change /veh REEP3 (11722064_at) / RFU IGLL1 (11728026_x_at) / Fold change /veh IGLL1 (11728026_x_at): dose or concentration left out as unconfirmed
Settings: MV-4-11 cells, 48 hours

Nc1ncn([C@@H]2O[C@H](CO)[C@@H](O)[C@H]2O)c(=O)n1 [azacitidine]
RFU CD79A (11719716_a_at): 8.73 RFU
